The test system of this experiment is Plasmodium falciparum strain 3D7. The experiment can be described thus: Growth inhibition assay with or without chloroquine, strain 3D7 (Example 3). The experiment is classed as cell-based. The protocol:
Each P. falciparum strain (BEI Resources) was first synchronized with 5% D-sorbitol following standard protocols at 3-5% hematocrit and 1-2% parasitaemia 20-24 hours prior to the start of the assay. Infected human erythrocytes were prepared at a starting parasitaemia of 0.4-0.7% and 2% hematocrit. Infected erythrocytes were combined with PfRH5-specific or control antibodies starting at a concentration of 666.67 nM with 1:5 serial dilution for each IgG1 antibody and chloroquine at one of two concentrations, 4.91 or 6.58 nM. […] The parasites were grown for 40-48 h until the schizont stage was reached (one complete life cycle). Parasite growth was stopped with three washes of cold PBS. Final parasitaemia was determined by measuring the parasite lactate dehydrogenase (LDH) activity. Percent growth inhibition was expressed relative to uninfected erythrocytes.

The structures appear in SMILES notation.

In the case of `CCN(CC)CCCC(C)Nc1ccnc2cc(Cl)ccc12` (stereo not shown) [chloroquine, reference compound], the “1025 of chloroquine with the susceptible 3D7 strain” value was 4.91 nM.

(Values after patent US11667701B2, “Anti-PfRH5 antibodies and antigen-binding fragments thereof” (priority 2018, dated 2023).)
